Strand notation (5' to 3'): a small letter for the sugar, then the base; units joined by * are phosphorothioate-linked, units joined directly phosphodiester-linked; [ ] holds rarer units or linkages, { } end groups; capitals alone tell only the bases. l = locked nucleic acid (LNA); [5mC] = 5-methylcytosine; d = 2'-deoxy (DNA)
How the values were obtained:
[1] = system: miR-122a; assay: miR-122a levels in mouse liver by microRNA specific qPCR; assay type: in vivo
Procedure: Total RNA was extracted from liver samples as described above and analysed for miR-122a levels by microRNA specific QPCR.
In vivo study: Ten groups of animals (female C57/BL6; 3 mice per group) were treated in the following manner. Group 1 animals were injected with 0.2 ml saline by i.p. on day 0, day 2 and day 4. Groups 2-10 were dosed by i.p. with three different conc. (25 mg/kg, 5 mg/kg and 1 mg/kg) of either LNA antimiR-122a/SEQ ID NO: 61 (group 2-4), LNA antimir-122a/SEQ ID NO: 66 (group 5-7) or LNA antimir-122a/SEQ ID NO: 63 (group 8-10); the LNA antimir-122a sequences are given in the Table 1. All three LNA antimiR-122a oligonucleotides target the liver-specific miR-122a. The doses were calculated from the Day 0 body weights of each animal.
The animals were sacrificed 48 hours after last dose (Day 6), retro-orbital blood was collected in tubes containing EDTA and the plasma fraction harvested and stored frozen −80° C. for cholesterol analysis. At sacrifice livers were dissected and one portion was cut into 5 mm cubes and immersed in 5 volumes of ice-cold RNAlater. A second portion was snap frozen in liquid nitrogen and stored for cryo-sectioning.
Total RNA was extracted from liver samples using Trizol reagent according to the manufacturer's recommendations (Invitrogen, USA) and analysed for miR-122a levels by microRNA-specific QPCR according to the manufacturer's recommendations (Ambion, USA). […]
NMRI female mice were treated with indicated doses of LNA-antimiR (SEQ ID NO: 61) along with a mismatch control (m, SEQ ID NO: 65), saline and antagomir (SPC3595) for three consecutive days and sacrificed 24 hours after last dose (as in example 11 “old design”, n=5). miR-122 levels were analyzed by qPCR and normalized to the saline treated group.
(§1) C57BL/6J female mice were fed on high fat diet for 13 weeks before the initiation of the SEQ ID NO: 63 treatment. […] Both hypercholesterolemic and normal mice were treated i.p. twice weekly with 5 mg/kg SEQ ID NO: 63 and the corresponding mismatch control for a study period of 5½ weeks. Blood samples were collected weekly and total plasma cholesterol was measured during the entire course of the study. Upon sacrificing the mice, liver and blood samples were prepared for total RNA extraction, miRNA and mRNA quantification, assessment of the serum transaminase levels, and liver histology.
The miR-122 and let-7a microRNA levels were quantified with TaqMan microRNA Assay (Applied Biosystems) following the manufacturer's instructions. The RT reaction was diluted ten times in water and subsequently used for real time PCR amplification according to the manufacturer's instructions. A two-fold cDNA dilution series from liver total RNA of a saline-treated animal or mock transfected cells cDNA reaction (using 2.5 times more total RNA than in samples) served as standard to ensure a linear range (Ct versus relative copy number) of the amplification. Applied Biosystems 7500 or 7900 real-time PCR instrument was used for amplification.

[2] = system: miR-122; assay: Total plasma cholesterol in hypercholesterolemic and normal mice, long-term treatment; assay type: in vivo, mouse; details: hypercholesterolemic and normal mice; 5 mg/kg i.p. twice weekly
Procedure: as §1
C57BL/6J female mice (Taconic M&B Laboratory Animals, Ejby, Denmark) were used. All substances were formulated in physiological saline (0.9% NaCl) to final concentration allowing the mice to receive an intraperitoneal injection volume of 10 ml/kg.
In the diet induced obesity study, the mice received a high fat (60EN %) diet (D12492, Research Diets) for 13 weeks to increase their blood cholesterol level before the dosing started. The dose regimen was stretched out to 5½ weeks of 5 mg/kg LNA-antimiR™ twice weekly. Blood plasma was collected once a week during the entire dosing period. After completion of the experiment the mice were sacrificed and RNA extracted from the livers for further analysis. Serum was also collected for analysis of liver enzymes.
Immediately before sacrifice retro-orbital sinus blood was collected in EDTA-coated tubes followed by isolation of the plasma fraction. Total plasma cholesterol was analysed using ABX Pentra Cholesterol CP (Horiba Group, Horiba ABX Diagnostics) according to the manufacturer's instructions.

[3] = system: miR-122a target genes (Bckdk, aldolase A, Nrdg3, CD320, Vldlr); assay: miR-122a target mRNA levels in mouse liver by qPCR; assay type: in vivo; details: 5 mg/kg i.p. twice weekly for 5½ weeks
[4] = system: miR-122a; assay: Melting temperature (Tm) of LNA anti-miR/miR-122a RNA duplex; assay type: physicochemical, human; details: Table 2; towards synthetic miR-122a RNA oligonucleotide with phosphorothioate linkages; PS backbone
Procedure: The melting temperatures were assessed towards the mature miR-122a sequence, using a synthetic miR-122a RNA oligonucleotide with phosphorothioate linkaged.
The LNA anti-miR/miR-122a oligo duplex was diluted to 3 μM in 500 μl RNase free H2O, which was then mixed with 500 μl 2× dimerization buffer (final oligo/duplex conc. 1.5 μM, 2× Tm buffer: 200 mM NaCl, 0.2 mM EDTA, 20 mM NaP, pH 7.0, DEPC treated to remove RNases). The mix was first heated to 95 degrees for 3 minutes, then allowed to cool at room temperature (RT) for 30 minutes.
Following RT incubation Tm was measured on Lambda 40 UV/VIS Spectrophotometer with peltier temperature progammer PTP6 using PE Templab software (Perkin Elmer). The temperature was ramped up from 20° C. to 95° C. and then down again to 20° C., continuously recording absorption at 260 nm. First derivative and local maximums of both the melting and annealing was used to assess melting/annealing point (Tm), both should give similar/same Tm values. For the first derivative 91 points was used to calculate the slope.

[5] = system: miR-122a; assay: miR-122a level in transfected Huh-7 cells by miR-122a specific qRT-PCR; assay type: cell-based, human; details: transfected at 1 and 100 nM, 24 hours after transfection
Procedure: The miR-122a expressing cell line Huh-7 was transfected with LNA anti-miR5 at 1 and 100 nM concentrations according to optimized lipofectamine 2000 (LF2000, Invitrogen) protocol (as follows).
Huh-7 cells were cultivated in Eagles MEM with 10% FBS, 2 mM Glutamax I, 1× non-essential amino acids, Gentamicin 25 μg/ml. The cells were seeded in 6-well plates (300000 cells per well), in a total vol. of 2.5 ml the day before transfection. At the day of transfection a solution containing LF2000 diluted in Optimem (Invitrogen) was prepared (1.2 ml optimem+3.75 μl LF2000 per well, final 2.5 μg LF2000/ml, final tot vol 1.5 ml).
LNA Oligonucleotides (LNA anti-miRs) were also diluted in optimem. 285 μl optimem+15 μl LNA oligonucleotide (10 μM oligonucleotide stock for final concentration 100 nM and 0.1 μM for final concentration 1 nM) Cells were washed once in optimem then the 1.2 ml optimem/LF2000 mix were added to each well. Cells were incubated 7 min at room temperature in the LF2000 mix where after the 300 μl oligonucleotide optimem solution was added. […]
miR-122a levels in the RNA samples were assessed on an ABI 7500 Fast real-time PCR instrument (Applied Biosystems, USA) using a miR-122a specific qRT-PCR kit, mirVana (Ambion, USA) and miR-122a primers (Ambion, USA). […]

| Substance | miR-122 levels in liver after long-term treatment (in words) ([1]; hypercholesterolemic and normal mice, 5 mg/kg i.p. twice weekly for 5½ weeks) | effect on plasma cholesterol levels (in words) [2] | de-repression of direct miR-122 target genes (AldoA and Bckdk) after long-term treatment (in words) [3] | Tm (° C.) [4] [°C] | inhibition of miR-122a (in words) [5] | miR-122a inhibition in liver (in words) ([1]; 25 mg/kg i.v. on 3 successive days, 24 hour after last dose) |
| --- | --- | --- | --- | --- | --- | --- |
| mismatch control: the corresponding mismatch control to SEQ ID NO: 63 in Example 31; probably SEQ ID NO: 64 (antisense l[5mC]*dC*lA*dT*dT*l[5mC]*lT*dG*dA*l[5mC]*dC*l[5mC]*dT*lA*l[5mC]) [reference compound] | had an effect on miR-122 levels | did not affect the plasma cholesterol levels | did not result in any functional de-repression |  |  |  |
| 5′-CcAttCTgaCcCtAC-3′ (antisense l[5mC]*dC*lA*dT*dT*l[5mC]*lT*dG*dA*l[5mC]*dC*l[5mC]*dT*lA*l[5mC]) [SEQ ID NO: 64, reference compound] |  |  |  | 32 | not found to inhibit miR-122a |  |
| 5′-ccAttGtcTcaAtcCa-3′ (antisense dC*dC*lA*dT*dT*lG*dT*dC*lT*dC*dA*lA*dT*dC*l[5mC]*dA) [SEQ ID NO: 65, reference compound] |  |  |  | 46 |  | no miR-122a inhibition was detected |
